Results: US6015820A, “4-Aryl-thio-pyridin-2(1H)-ones, medicines containing them and their uses in the treatment of illnesses linked to HIV” (priority 1995, dated 2000)
Where two headings read alike, the source gives them in different places.

Key:
IT of recombinant HIV-1 = biological target: T1, IT of recombinant HIV-1 (Human immunodeficiency virus type 1 group M subtype B, UniProt P03369); experiment: inhibition of the inverse transcriptase of recombinant HIV-1; format: biochemical
T1 construct: purify the IT enzyme of the recombinant HIV-1; made in house; host or cells: yeast cells transformed with the pAB 24/IT-4 vector
Protocol: Yeast cells transformed with the pAB 24/IT-4 vector were used to purify the IT enzyme of the recombinant HIV-1 as described by Sallafranque-Andreola et al. (1989 Eur. J. Biochem. 184, 364-374).
Incubation was carried out at 37° C. for 10 minutes in the presence of various matrix-primers.
a) Poly C-oligo dG: the reaction mixture contained a final volume of 0.05 ml, Tris-HCl 50 mM pH 8.0, MgCl2 5 mM, dithiothreitol 4 mM, 0.48 A260 /ml of poly C-oligo dG (5:1), 1.0 μCi of [^3 H]dGTP (28 Ci/mmole), dGTP 2 μM, KCl 80 mM, 1 μg of bovine serum albumin and IT 20-50 nM.
b) Poly A-oligo dT: the same conditions as in a), except that 0.48 A260 /ml of poly A-oligo dT (5:1), 0.5 μCi of [^3 H]dTTP (46 Ci/mmole), dTTP 20 μM were used.
The reactions were stopped by adding in the cold 1 ml of 10% trichloroacetic acid plus sodium pyrophosphate 0.1 M. The precipitates were filtered through nitrocellulose membranes, washed with 2% trichloroacetic acid, dried and counted in a PPO/POPOP/toluene scintillation mixture.
All the compounds were dissolved in dimethyl#sulphoxide (DMSO). The test samples were prepared in the presence of the same final concentration of DMSO. IC50 is the concentration required to inhibit the activity of the IT of the recombinant HIV-1 by 50%.

HIV-1 LAI = experiment: anti-HIV-1 activity: replication of HIV-1 LAI on CEM-SS cells; format: cell-based; conditions: Table 2, HIV-1 LAI, CEM-SS cells; for IC50: Human immunodeficiency virus 1, 120 h, 5 days, read-out: IC50, anti-HIV-1 activity
Protocol: (§1) The CEM-SS and the HIV-1 resistant to Nevirapine (N119) carrying a point mutation at codon 181 of the IT, were supplied respectively by P. NARA and D. RICHMAN through the intermediary of the AIDS Research and Reference Reagent Program, Division of AIDS, NIAID, NIH (USA) (Catalogue references : No. 776 and No. 1392).
(§2) The virus production was measured by quantifying the activity of the inverse transcriptase associated with viral particles released into the culture supernatant. In short, cells were infected with 100 TCID50 for 30 minutes; after adsorption of the virus, unbound particles were removed by two washings and the cells were cultivated in the presence of different concentrations of the compounds tested for 5 days before determining the viral production. The concentration inhibiting 50% of the viral multiplication (IC50) came from the computer plot of the median effect of the dose effect results (Chou et al. Elsevier Science Publishers, Cambridge U.K. (1985), 19-28).

[1] = cytotoxicity on non-infected cells (MTT test); format: cell-based; conditions: human; Table 2; non-infected CEM-SS cells, MTT, 5 days
Protocol: (§3) In parallel experiments, the cytotoxicity of the molecules was measured on non-infected cells, after an incubation of 5 days in the presence of these molecules, by using a […] titration (MTT test) based on the ability of the mitochondrial dehydrogenases of the living cells to reduce 3-(4,5-dimethylthiazol-2-yl)-2,5-diphenyltetrazolium bromide in formazan (Mosmann et al. J. Immunol. Methods ([…]), 65, 55-63). The concentration cytotoxic at 50% (CC50) is the concentration at which the DO540 has been reduced to half and is calculated by using the program mentioned above.

CEM-SS cells = experiment: cytotoxicity on non-infected cells (MTT test); format: cell-based; conditions: MTT, 5 days
Protocol: as §3

[2] = test system: HIV-1 resistant to Nevirapine (N119); experiment: microbe, parasite or virus in culture; format: cell-based; conditions: for IC50: Human immunodeficiency virus 1, CEM-SS, read-out: IC50, strain resistant to Nevirapine; for SI (selectivity index): Table 3, strain resistant to Nevirapine
Protocol: as §1, with “The effects of the compounds were evaluated on the replication of HIV-1 (see Table 2) on CEM-SS cells (cell lines of the lymphocytic lineage) strongly infected with HIV-1 LAI as described by Moog et al. (Antiviral Research (1994), 24, 275-288). The” for “The”
as §2

isolated virion HIV-1LAI = experiment: infectivity of the isolated virion after treatment with inhibitors (HT4LacZ cells); format: cell-based
Protocol: H9 cells chronically infected with HIV-1LAI (10^8 /ml) were cocultivated with MT4 cells (10^8 /ml) for 48 hours in an RMPI medium supplemented by 10% of calf foetal serum (CFS). The cells were then removed by centrifugation and then the supernatant liquid was filtered (0.45 μm) to remove residual cells and cell debris.
After having been incubated with the various inhibitors, the viral supernatants (200 μl) were deposited in the filtering part of a VectaSpin tube (WHATMAN) fitted with an ANAPORE membrane of porosity 0.02 μm. For 10 minutes they were subjected to centrifugation, the acceleration of which reached 6000 g at the filtering membrane. The viral residuums thereby obtained (10-15 μl ) were washed 3 times under the same conditions with 500 μl of RPMI then restored to their initial volumes with RPMI containing 10% of CFS.
The HT4LacZ-1 cells were kept in a DMEM medium (glucose 4.5 g/l) supplemented with 10% of calf foetal serum in the presence of Gentamycin (50 mg/l). These cells stemmed from Hela cells in which had been cloned, on the one hand the gene coding for the human CD4 so as to render them susceptible to infection by the HIV (Chesebro and Wehrly, 1988, J. Virol., 62, 3779-3788), and on the other hand the gene for β-Galactosidase which, placed under the dependent of the LTR of the HIV-1 served as a marker for the viral infection (Rocancourt et al. (1990) J. Virol. 1990 64-6, 2660-2688). When the virus infects such cells after its integration into the cellular genome, the production of the regulatory protein TAT activates the LTR of the HIV. The result is an activation of the gene of β-Galactosidase which leads to its production in the intracellular medium and more particularly in the nucleus. It is this protein that serves as a marker of the infection.
The evening of day 0, the HT4LacZ-1 cells were diluted at the rate of 75000 cells per ml of medium. 100 μl of this suspension was then distributed over a flat bottomed plate with 96 wells and was cultivated overnight at 37° C. (5% of CO2).
The morning of day 1, the supernatant liquid was removed by aspiration. Each well was then complemented with 200 μl of the viral supernatant dilutions to be tested. Each dilution was made in a DMEM medium (glucose 4.5 g/l) supplemented with 10% of CFS. The plates were then placed in an environment at 37° C. in the presence of 5% of CO2.
After 48 hours of culture, the supernatant liquid was aspirated, then each well was washed 3 times in PBS before being complemented with 200 μl of developing buffer (Tris-HCl 50 mM pH=8.5, ONPG 5 mg/ml β-mercapto-ethanol 7 μl/ml Triton×100 0.05%). After 4 hours of incubation at 37° C., the optical density of each well was measured.
The concentration of each of the inhibitors of the IT of the HIV-1 was adjusted to 50 mM in DMSO. The later dilutions were carried out on RPMI 1640. 2 μl of suitable dilutions of each of these inhibitors were added to 198 μl of a freshly unfrozen viral suspension. After 3 hours of incubation at ambient temperature, these suspensions were filtered on 0.02 μ VecraSpin tubes, then washed 3 times with 500 μl of RPMI 1640. The viral residuums were then adjusted to 200 μL with the culture medium (RPMI-10% CFS), then tested with regard to their infectivity on HT4LacZ cells.

Row | SMILES | IC50 (IT of recombinant HIV-1) [nM] | IC50 (HIV-1 LAI) [nM] | SI (selectivity index) (HIV-1 LAI) | CC50 at 120 h [1] [µM] | CC50 (CEM-SS cells; Table 3, non-infected cells) [µM] | IC50 [2] [µM] | SI (selectivity index) [2] | CC50 (CEM-SS cells; Table 2, non-infected CEM-SS cells) [µM] | IC50 (IT of recombinant HIV-1; read-out: IC50, inhibition of the inverse transcriptase, Table 5, IT of recombinant HIV-1) [nM] | activity at 1 µM (isolated virion HIV-1LAI; Human immunodeficiency virus 1, 1 μM inhibitor, 3 h, 100 TCID50, compared with viral supernatant subjected to same treatments, mean of 1 to 4 experiments, read-out: Activity of the isolated virions after treatment) [%] | activity at 10 µM (isolated virion HIV-1LAI; Human immunodeficiency virus 1, 10 μM inhibitor, 3 h, 100 TCID50, compared with viral supernatant subjected to same treatments, mean of 1 to 4 experiments, read-out: Activity of the isolated virions after treatment) [%] | activity on the isolated virion (in words) (isolated virion HIV-1LAI; isolated virion)
1 | Cc1c(Sc2ccccc2)n(COCc2ccccc2)c(=O)[nH]c1=O [BPT, 1-benzyloxymethyl-6-(phenylthio)thymine, reference compound] | 400 |  |  |  |  |  |  |  |  |  |  | 
2 | Cc1cc(C)cc(Sc2c(C)cnc(O)c2[N+](=O)[O-])c1 [Compound 7a, 5-methyl-3-nitro-4-(3', 5'-dimethylphenyl)thiopyridin-2(1H)-one] | > 10000 | 120 | > 83 | > 10 | > 10 | > 10 |  |  |  |  |  | 
3 | CCc1cnc(O)c([N+](=O)[O-])c1Sc1cc(C)cc(C)c1 [Compound 7b, 5-ethyl-3-nitro-4-(3', 5'-dimethylphenyl)thio-pyridin-2(1H)-one] |  |  | > 111 | > 10 | > 10 | 6.7 | > 1 |  |  |  |  | 
4 | Cc1cccc(Sc2c(C)c[nH]c(=O)c2[N+](=O)[O-])c1 [Compound 7e, 5-methyl-3-nitro-4-(3'-methylphenyl)thio-pyridin-2(1H)-one] | > 10000 |  |  | > 10 |  |  |  |  |  |  |  | 
5 | Cc1cc(C)cc(Sc2c([N+](=O)[O-])c(O)nc3ccccc23)c1 [Compound 7f, 3-nitro-4-(3', 5'-dimethylphenyl)-thiopuinoline-2(1H)-one] |  | 3800 | > 26 |  | > 10 | > 10 |  | > 100 |  |  |  | 
6 | Cc1cc(C)cc(Sc2c(C)cnc(O)c2N)c1 [Compound 8a, 3-amino-5-methyl-4-(3', 5'-dimethylphenyl)-thio-pyridin-2(1H)-one] | 100 | 10 | > 1000 | > 10 | > 10 | > 10 |  |  |  |  |  | 
7 | CCc1cnc(O)c(N)c1Sc1cc(C)cc(C)c1 [Compound 8b, 3-amino-5-ethyl-4-(3', 5'-dimethylphenyl)thio-pyridin-2(1H)-one] |  | 10 | > 1000 | > 10 | > 10 | 6.7 | > 1 |  |  |  |  | 
8 | Cc1cccc(Sc2c(C)c[nH]c(=O)c2N)c1 [Compound 8e] |  | 1400 | > 55 | 78 |  | 41.5 | > 1 |  | > 4000 |  |  | 
9 | Cc1cc(C)cc(Sc2c(N)c(O)nc3ccccc23)c1 [Compound 8f, 3-amino-4-(3', 5'-dimethylphenyl)-thio-quinoline-2(1H)-one] |  | 250 | > 36 | > 9 | 8.2 | 6.6 | > 1.5 |  |  |  |  | 
10 | CC(=O)Nc1c(Sc2cc(C)cc(C)c2)c(C)c[nH]c1=O [Compound 11b, 3-acetamido-5-methyl-4-(3', 5'-dimethylphenyl)thio-pyridin-2(1H)-one] | > 4000 | 67 | > 1492 | > 100 | > 100 | > 100 |  |  |  |  |  | 
11 | CCC(=O)Nc1c(Sc2cc(C)cc(C)c2)c(C)c[nH]c1=O [Compound 11c, 5-methyl-3-propionamido-4-(3', 5'-dimethylphenyl)thio-pyridin-2(1H)-one] | > 4000 | 41400 | > 2 | > 100 |  |  |  |  |  |  |  | 
12 | CCc1c(C)nc(O)c(NC(C)=O)c1Sc1cc(C)cc(C)c1 [Compound 11g, 3-acetamido-5-ethyl-6-methyl-4-(3', 5'-dimethylphenyl)thio-pyridin-2(1H)-one] |  | 50 | > 1600 | > 80 | > 100 | 4.3 | > 23 |  |  |  |  | 
13 | CCc1c(Sc2cc(C)cc(C)c2)cc(=O)[nH]c1C [Compound 16, 5-ethyl-6-methyl-4-(3', 5'-dimethylphenyl)thio-pyridin-2(1H)-one] | 400 | 500 | > 20 | > 10 |  |  |  |  |  |  |  | 
14 | Cc1c(Sc2ccccc2)n(COCCO)c(=O)[nH]c1=O [HEPT, 1-[(2-hydroxyethoxy)methyl]-6-(phenylthio)thymine] | > 6000 |  |  |  |  |  |  |  |  | 121 | 141 | totally inactive
